Several values for one entry are separate records, joined by “and”; a condition that tells them apart may be missing. Equal values may be shown once. Where a name gives a salt, the structure may show the parent alone. Read-outs that look alike come from different tables or passages of the source.
Tests used:
RSV (A2) [1] = test: viral yield reduction assay (growth inhibition), RSV; format: cell-based, human respiratory syncytial virus; settings: 4 days; for IC50: human respiratory syncytial virus, 96 h
Method: (§1) The compounds were tested for biological activity using viral yield reduction assays. Host cells (indicated as HF for human foreskin fibroblasts and as vero, the commonly used African green monkey cell line, in Tables 1 and 1a) were plated at 4×10^4 cells/well in cell growth medium with 2% fetal bovine serum or 2% calf serum in 96-well plates (0.1 ml/well) and incubated overnight. The compounds were added to individual wells to give final concentrations ranging from 50 to 0.1 μg/ml in two-fold concentration steps. After 1 hour, virus was added, and the incubation was continued for 4 days with RSV or CMV and for 2 days with HSV. At the end of the experiment, the amount of virus growth was quantitated and the yield reduction at various concentrations of compound was calculated. This allows estimation of the concentration of compound giving 50% reduction in virus growth (IC50).
(§2) Table 1. Fifty percent inhibitory concentrations for growth inhibition
(§3) (yield reduction) and for plaque formation were determined as described i
(§4) the text. The virus strains used were RSV (A2), CMV (Ad169), HSV1
(§5) (Patton). The host cells used were human foreskin fibroblasts (HF) and […]

CMV (Ad169) [2] = test: viral yield reduction assay (growth inhibition), CMV; format: cell-based, human cytomegalovirus; settings: Human betaherpesvirus 5, AD169, 96 h, HF cells, 4 days
Method: as §1, §2, §3, §4, §5

CMV (Ad169) [3] = test: viral plaque reduction assay, CMV Ad169; format: cell-based, human cytomegalovirus; settings: Table 1; HF cells
RSV (A2) [4] = test: viral plaque reduction assay, RSV A2; format: cell-based, human respiratory syncytial virus; settings: Table 1; vero cells
viral protein synthesis = viral protein synthesis in infected vero cells (mechanism of action); format: cell-based
Method: The time in the virus life-cycle when Example 1 exerts its effect was determined to increase understanding of the mechanism of action. This was accomplished by adding and removing the compound at various times relative to infection and assessing the effect on viral protein synthesis. Vero cells were infected on ice for 1 hour, unadsorbed virus was removed, and then the infected cells were incubated at 37° C. for 18 hours (virus adsorption will occur on ice, but fusion will not proceed until the temperature is raised to 18° C. or above). After the 18 hour incubation at 37° C. (when the bulk of ongoing protein synthesis was directed by viral RNAs), ^35 S-methionine was added for 2 hours, the cells were lysed, and the labeled proteins were analyzed on SDS-PAGE gels. The viral N, P, and M proteins were then evident. […] However, when the compound of Example 1 was added even after only 5 minutes incubation at 37° C., viral protein production was unimpeded. Therefore, the process inhibited was the fusion process or some closely succeeding step which is required for later viral gene expression.

[5] = system: syncytium formation in cells previously infected with RSV; test: syncytium formation in RSV-infected vero cells; format: cell-based, African green monkey
Method: This was done by infecting vero cells at a multiplicity of infection of 3 for 1 hour, then replacing the original medium with fresh medium. After 6 hours incubation, compound was added. After 24 and 48 hours, the infected cells were examined under the microscope to determine the extent of syncytium formation. Differences in the extent of syncytium formation due to the presence of compound were easily recognized and the compounds were easily ranked in terms of potency in this assay. The actual IC50's as judged by this method are approximate. They were 0.3 and 0.05 μg/ml for compounds 16 and 17, respectively.

RSV A2 = format: in vivo, cotton rats; settings: for inhibition of RSV in vivo (summary): cotton rats, all experiments of Table 3
RSV [6] = format: in vivo, cotton rats; settings: EXPT 3, Lavage/Plaque
RSV [7] = format: in vivo, cotton rats; settings: EXPT 3, Lung/Plaque
[8] = i.n. d 0 15 mg/k, d 1,2,3 30 mg/k
[9] = EXPT 3, i.n. 30 mg/k d 1,2,3, Lavage/CPE
[10] = EXPT 3, i.n. d 0 15 mg/k, d 1 30 mg/k, Lavage/CPE
[11] = EXPT 3, i.n. d 0 15 mg/k, d 1,2,3 30 mg/k, Lavage/CPE
[12] = EXPT 3, i.p. 30 mg/k d 1,2,3, Lavage/CPE

4-[4.6-Di[3-aminophenyl-N,N-bis(2-carbamoylethyl)sulfonylimino]-1,3,5-triazin-2-ylamino]-4'-(4-[3-aminophenyl-N,N-bis(2-carbamoylethyl)sulfonylimino]- 6-[3-aminophenyl-N,N bis(3-propionic acid)-1,3,5-triazin-2-ylamino]-stilbene-2,2'-disulphonic acid, disodium salt [Example 10]
IC50 in growth inhibition RSV/HF (RSV (A2) [1]; HF cells): < 3 µg/mL | IC50 in growth inhibition RSV/VERO (RSV (A2) [1]; vero cells): 0.7 µg/mL

4,4'-Bis[4,6-di[4-amino-N'-[3-aminophenyl-N,N-bis(2-hydroxyethyl)sulfonylimino]-benzensulfoamide]-1,3,5-triazin-2-ylamino]-stilbene-2,2'-disulfonic acid, disodium salt [Example 25]
IC50 in growth inhibition RSV/VERO (RSV (A2) [1]; vero cells): 30 µg/mL

NC(=O)CCN(CCC(N)=O)S(=O)(=O)c1cccc(Nc2nc(Cl)nc(Nc3ccc(/C=C/c4ccc(Nc5nc(Cl)nc(Nc6cccc(S(=O)(=O)N(CCC(N)=O)CCC(N)=O)c6)n5)cc4S(=O)(=O)O)c(S(=O)(=O)O)c3)n2)c1 [Example 8, 4,4'-Bis[4-chloro-6-[3-aminophenyl-N,N-bis(2-carbamoylethyl)sulfonylimino]-1,3,5-triazin-2-ylamino]-stilbene-2,2'-disulphonic acid, disodium salt]
IC50 (CMV (Ad169) [2]): > 50 µg/mL | IC50 (RSV (A2) [1]; HF cells, read-out: IC50 in growth inhibition RSV/HF): > 50 µg/mL | IC50 (RSV (A2) [1]; vero cells, read-out: IC50 in growth inhibition RSV/VERO): > 50 µg/mL

4,4'-Bis[4-chloro-6-di[4-amino-N'-[3-aminophenyl-N,N-bis(2-carbamoylethyl)sulfonylimino]-benzamide]-1,3,5-triazin-2-ylamino]-stilbene-2,2'-disulfonic acid, disodium salt [Example 24]
IC50 in growth inhibition RSV/VERO (RSV (A2) [1]; vero cells): 50 µg/mL

9.9-Dioxo-2,7-Bis[4,6-di[3-aminophenyl-N,N-bis(2-carbamoylethyl)sulfonylimino]-1,3,5-triazin-2-ylamino]-dibenzothiophen-3.6-disulfonic acid, disodium salt [Example 23]
IC50 in plaque assay CMV/HF (CMV (Ad169) [3]): 20 µg/mL | IC50 in plaque assay RSV/VERO (RSV (A2) [4]): 8 µg/mL

NC(=O)CCN(CCC(N)=O)S(=O)(=O)c1cccc(Nc2nc(Nc3cccc(S(=O)(=O)N(CCC(N)=O)CCC(N)=O)c3)nc(Nc3ccc(/C=C/c4ccc(Nc5nc(Nc6cccc(S(=O)(=O)N(CCC(N)=O)CCC(N)=O)c6)nc(Nc6cccc(S(=O)(=O)N(CCC(N)=O)CCC(N)=O)c6)n5)cc4S(=O)(=O)O)c(S(=O)(=O)O)c3)n2)c1 [Example 1, 4,4'-Bis[4.6-di[3-aminophenyl-N,N-bis(2-carbamoyl-ethyl)sulfonylimino]-1,3,5-triazin-2-ylamino]-stilbene-2,2'-disulfonic acid, disodium salt]
viral protein synthesis (viral protein synthesis; 10 μg/ml added immediately after virus adsorption and before raising temperature to 37° C.): fully prevented | viral protein production (viral protein synthesis; added after only 5 minutes incubation at 37° C.): unimpeded | inhibition of syncytium formation [5]: inhibit syncytium formation | inhibition of RSV in vivo (summary) (RSV A2): inhibit RSV in vivo | Mean titer (RSV A2; rat, in vivo, disodium salt): 2.8 log10/g lung and 1.73 log10/g lung and 3.43 log10/g lung

NC(=O)CCN(CCC(N)=O)S(=O)(=O)c1cccc(Nc2nc(Nc3cccc(S(=O)(=O)N(CCC(N)=O)CCC(N)=O)c3)nc(Nc3ccc(-c4ccc(Nc5nc(Nc6cccc(S(=O)(=O)N(CCC(N)=O)CCC(N)=O)c6)nc(Nc6cccc(S(=O)(=O)N(CCC(N)=O)CCC(N)=O)c6)n5)cc4S(=O)(=O)O)c(S(=O)(=O)O)c3)n2)c1 [Example 4, 4,4'-Bis[4,6-di[3-aminophenyl-N,N-bis(2-carbamoyl-ethyl)sulfonylimino]-1,3,5-triazin-2-ylamino]-biphenyl-2,2'-disulfonic acid, disodium salt]
inhibition of syncytium formation [5]: inhibit syncytium formation | Fold red. (RSV [6]; i.n. 30 mg/k d 1,2,3): 1.2 log10 | Mean titer (RSV [6]; i.n. 30 mg/k d 1,2,3): 3.09 log10/g lung | Fold red. (RSV [6]; i.n. d 0 15 mg/k, d 1 30 mg/k): 2.03 log10 | Mean titer (RSV [6]; i.n. d 0 15 mg/k, d 1 30 mg/k): 2.26 log10/g lung | Fold red. (RSV [6]; [8]): 2.04 log10 | Mean titer (RSV [6]; [8]): 2.25 log10/g lung | Fold red. (RSV [6]; i.p. 30 mg/k d 1,2,3): 0.09 log10 | Mean titer (RSV [6]; i.p. 30 mg/k d 1,2,3): 4.1 log10/g lung | Fold red. (RSV A2; [9]): 2.51 log10 | Mean titer (RSV A2; [9]): 1.67 log10/g lung | Fold red. (RSV A2; [10]): 2.52 log10 | Mean titer (RSV A2; [10]): 1.66 log10/g lung | Fold red. (RSV A2; [11]): 2.13 log10 | Mean titer (RSV A2; [11]): 2.05 log10/g lung | Fold red. (RSV A2; [12]): 0 log10 | Mean titer (RSV A2; [12]): 4.18 log10/g lung | inhibition of RSV in vivo (summary) (RSV A2): inhibit RSV in vivo | Fold red. (RSV A2; rat, in vivo): 1.63 log10 | Mean titer (RSV A2; rat, in vivo): 2.05 log10/g lung | Fold red. (RSV [7]; i.n. 30 mg/k d 1,2,3): 1.18 log10 | Mean titer (RSV [7]; i.n. 30 mg/k d 1,2,3): 3.37 log10/g lung | Fold red. (RSV [7]; i.n. d 0 15 mg/k, d 1 30 mg/k): 2.23 log10 | Mean titer (RSV [7]; i.n. d 0 15 mg/k, d 1 30 mg/k): 2.32 log10/g lung | Fold red. (RSV [7]; [8]): 2.3 log10 | Mean titer (RSV [7]; [8]): 2.25 log10/g lung | Fold red. (RSV [7]; i.p. 30 mg/k d 1,2,3): 0.26 log10 | Mean titer (RSV [7]; i.p. 30 mg/k d 1,2,3): 3.92 log10/g lung

NC(=O)c1ncn([C@@H]2O[C@H](CO)[C@@H](O)[C@H]2O)n1 [Ribavirin, reference compound]
Fold red. (RSV A2; rat, in vivo): 0.8 log10 | Mean titer (RSV A2; rat, in vivo): 3.3 log10/g lung
